Active and inactive are the calls of the source. No cut-off for these calls is given here.
Key:
Nucleic Acid [1] = tested on: Nucleic Acid
Description: Association constant for binding to poly [d(G-C)]

Nucleic Acid [2] = tested on: Nucleic Acid; remark: listed apart in the source
Description: Association constant for binding to poly [d(A-T)]

Calf thymus DNA [3] = conditions: Bos taurus
Description: (§1) Inhibitory concentration against ethidium binding to DNA

Calf thymus DNA [4] = conditions: Bos taurus; remark: listed apart in the source
Description: as §1

Description for Mus musculus: Maximum percent increase in life span of mice
Description for physchem: Ionisation constant (pKa)

Row | Log K (Nucleic Acid [1]) | pKa (physchem) | Log K (Nucleic Acid [2]) | SMILES | C50 (Calf thymus DNA [3]) [µM] | ILS (Mus musculus) | C50 (Calf thymus DNA [4]) [µM]
1 | 5.23 | 7.76 | 5.25 | Cc1ccccc1Nc1c2ccccc2nc2ccccc12 | 67 | – | –
2 | 5.42 | 7.8 | 5.36 | Oc1ccccc1Nc1c2ccccc2nc2ccccc12 | – | inactive | 39
3 | 6.1 | 7.3 | 6 | Oc1cccc(Nc2c3ccccc3nc3ccccc23)c1 | – | inactive | 8.2

— ChEMBL document CHEMBL1121781, “Potential antitumor agents. 34. Quantitative relationships between DNA binding and molecular structure for 9-anilinoacridines substituted in the anilino ring” (J Med Chem, 1981)
